Key:
[1] = system: Dunkin-Hartley guinea pigs; assay: Effect on the guinea pig cough model (ATP or histamine plus citric acid induced cough); assay type: in vivo; settings: oral administration 30 minutes to 1 hour before inducing cough, 250 uM ATP or 0.6 mM histamine then 0.5 M citric acid nebulized, FIG. 1 to FIG. 3 (doses 5.1-92 mg/kg)
Procedure: In this test, dextromethorphan (purchased from Shanghai Send Pharmaceutical Technology Co., Ltd.) was used as a positive control compound. A clinical control compound having the following structure was employed, and it was prepared according to the method described in WO 2008/040652 A1:
Test animals were 300-350 g Dunkin-Hartley guinea pigs (purchased from Shanghai Jiagan Biotechnology Co., Ltd). After being purchased and adaptively fed for one week, the animals were randomly divided into groups based on body weight, each test group comprising 10-15 test animals The vehicle (a 0.5% CMCNa solution), the test compounds, the positive control compound (dextromethorphan) or the clinical control compound were orally administrated (compounds at test dosages were respectively added to a 0.5% CMCNa solution, uniformly dispersed through thorough ultrasonic treatment; the solution was vortex mixed again before administration to each animal, and the test dosage ranged from 1 mg/kg to 100 mg/kg). Administration was performed 30 minutes to 1 hour before inducing cough.
Method of inducing cough: test animals were put in a body pneumotachograph (Buxco) and allowed to stand for several minutes. […] Starting from the nebulization of citric acid, the number of coughs of the animals in 10 minutes were recorded by employing a small animal pulmonary function detector (Buxco).

P2X3 [2] = target: T1, P2X3 (Homo sapiens, UniProt P56373); assay: Inhibition on the P2X3-mediated current in 1321N1 cell line stably transfected with P2X3 (whole-cell patch clamp); assay type: cell-based; settings: 1321N1 P2X3 stable transfected cells, clamping potential -60 mV, 5 minutes pre-treatment, Hill equation fit; read-out: IC50, inhibition of P2X3-mediated current induced by 10 μM Na2ATP
T1 construct: expressed in transfected cells; host or cells: 1321N1 cells, stably transfected
T1 sequence (P56373 1-397): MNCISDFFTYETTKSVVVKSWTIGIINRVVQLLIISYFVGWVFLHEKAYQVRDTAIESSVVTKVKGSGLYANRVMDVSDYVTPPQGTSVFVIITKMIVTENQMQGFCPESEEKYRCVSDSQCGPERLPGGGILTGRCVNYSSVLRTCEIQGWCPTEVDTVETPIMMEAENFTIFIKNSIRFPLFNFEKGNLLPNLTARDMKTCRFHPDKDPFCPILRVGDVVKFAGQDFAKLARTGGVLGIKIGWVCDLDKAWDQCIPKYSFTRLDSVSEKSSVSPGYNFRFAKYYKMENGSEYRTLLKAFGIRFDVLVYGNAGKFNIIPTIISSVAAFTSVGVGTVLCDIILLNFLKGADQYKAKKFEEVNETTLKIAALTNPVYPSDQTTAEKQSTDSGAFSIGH
Procedure: Membrane current was recorded by employing HEKA EPC-10 patch clamp amplifier and PATCHMASTER acquisition system. 1321N1 P2X3 stable transfected cells were transferred to an about 1 ml bath embedded in an inverted microscope platform, and an extracellular fluid (2 mM CaCl2, 1 mM MgCl2, 5 mM KCl, 155 mM NaCl, 12 mM glucose and 10 mM HEPES (pH=7.4)) was perfused by using a gravitational perfusion system. The P2X3-mediated current of a single cell was recorded in a whole cell recording mode. After formation of a gigaseal and rapture of the membrane, clamping potential was set at −60 mV. 10 μM Na2ATP was perfused for 5 seconds, and the P2X3-mediated current induced at this point was taken as a control current. The cells were then treated with a solution of compound 66 at a specific concentration (prepared with the extracellular fluid) for 5 minutes. The solution of compound 66 at this concentration and 10 μM Na2ATP were co-applied to induce a cell current (see FIG. 4 for the effect of the compound on the current), and an inhibition rate relative to the control current was calculated according to the following formula:
(§1) Inhibition Rate Relative to the Control Current=(1−I2/I1)*100%
(§2) wherein I1 represents the control current, and I2 represents the current after application of compound 66. […]

P2X3 [3] = target: T2, P2X3 (Rattus norvegicus, UniProt P49654); assay: Inhibition on the P2X3-mediated current in ex vivo cultured rat dorsal root ganglion (whole-cell patch clamp); assay type: cell-based; settings: primary cells of rat DRG, clamping potential -60 mV, 5 minutes pre-treatment, Hill equation fit; read-out: IC50, inhibition of P2X3-mediated current induced by 30 μM a,b-Me ATP
T2 construct: The primary cells of rat DRG were transferred; endogenous in cells; host or cells: primary rat dorsal root ganglion cells, cultured ex vivo
T2 sequence (P49654 1-397): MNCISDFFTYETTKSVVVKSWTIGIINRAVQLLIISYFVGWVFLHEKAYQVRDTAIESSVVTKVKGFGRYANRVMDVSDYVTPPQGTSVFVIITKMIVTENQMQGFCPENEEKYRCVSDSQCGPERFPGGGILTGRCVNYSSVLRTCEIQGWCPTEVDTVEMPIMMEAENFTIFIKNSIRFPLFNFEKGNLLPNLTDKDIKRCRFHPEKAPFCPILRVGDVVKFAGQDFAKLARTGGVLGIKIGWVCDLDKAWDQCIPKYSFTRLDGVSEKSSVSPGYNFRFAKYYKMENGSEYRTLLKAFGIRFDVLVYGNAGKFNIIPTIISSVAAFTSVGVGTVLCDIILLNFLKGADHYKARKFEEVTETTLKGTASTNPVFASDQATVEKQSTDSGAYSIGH
Procedure: Membrane current was recorded by employing HEKA EPC-10 patch clamp amplifier and PATCHMASTER acquisition system. The primary cells of rat DRG were transferred to an about 1 ml bath embedded in an inverted microscope platform, and an extracellular fluid (2 mM CaCl2, 1 mM MgCl2, […] KCl, 155 mM NaCl, 12 mM glucose and 10 mM HEPES (pH=7.4)) was perfused by using a gravitational perfusion system. The P2X3-mediated current of a single cell was recorded in a whole cell recording mode. After formation of a gigaseal and rapture of the membrane, clamping potential was set at −60 mV. 30 μM a,b-Me ATP (also known as “α,β-meATP”) was perfused for 5 seconds, and the P2X3-mediated current induced at this point was taken as a control current. The cells were then treated with a solution of compound 66 at a specific concentration (prepared with the extracellular fluid) for 5 minutes. The solution of compound 66 at this concentration and 30 μM a,b-Me ATP were co-applied to induce a cell current (see FIG. 6 for the effect of the compound on the current), and an inhibition rate relative to the control current was calculated according to the following formula:
as §1, §2

SMILES	antitussive effect (number of coughs in 10 minutes) [1]	IC50 (P2X3 [2])	IC50 (P2X3 [3])
CNc1cc(Oc2cnc(N)nc2N)c(C(C)C)cn1 [Compound 22]	significant antitussive effect, which was better than that of the clinical control compound	–	–
C#Cc1cc(Oc2cnc(N)nc2N)c(C(C)C)cn1 [Compound 66]	significant antitussive effect, which was better than that of the clinical control compound	26.2 nM	28.3 nM

From patent US20220211703A1, “METHOD FOR TREATING COUGH BY USING DIAMINOPYRIMIDINE COMPOUND” (BEIJING TIDE PHARMACEUTICAL CO., LTD., priority 2019, published 2022)
